Where a name gives a salt, the structure may show the parent alone.

Results on 40 molecules are retold here after patent US20090054454A1, “BENZOFURANYL- AND BENZOTHIENYL- PIPERAZINYL QUINOLINES AND METHODS OF THEIR USE” (priority 2007, published 2009).

The target in one data set is Human 5-HT Transporter (Homo sapiens, UniProt P31645). Kind of data set: Inhibition of 3H-5-HT Uptake by Cells Possessing the Human 5-HT Transporter (HC 5HT Transporter), Jar cells. The following applies: HC-5HTC Transporter Ki (nM), Jar cells treated with staurosporine.
Chain of Human 5-HT Transporter (P31645 whole entry): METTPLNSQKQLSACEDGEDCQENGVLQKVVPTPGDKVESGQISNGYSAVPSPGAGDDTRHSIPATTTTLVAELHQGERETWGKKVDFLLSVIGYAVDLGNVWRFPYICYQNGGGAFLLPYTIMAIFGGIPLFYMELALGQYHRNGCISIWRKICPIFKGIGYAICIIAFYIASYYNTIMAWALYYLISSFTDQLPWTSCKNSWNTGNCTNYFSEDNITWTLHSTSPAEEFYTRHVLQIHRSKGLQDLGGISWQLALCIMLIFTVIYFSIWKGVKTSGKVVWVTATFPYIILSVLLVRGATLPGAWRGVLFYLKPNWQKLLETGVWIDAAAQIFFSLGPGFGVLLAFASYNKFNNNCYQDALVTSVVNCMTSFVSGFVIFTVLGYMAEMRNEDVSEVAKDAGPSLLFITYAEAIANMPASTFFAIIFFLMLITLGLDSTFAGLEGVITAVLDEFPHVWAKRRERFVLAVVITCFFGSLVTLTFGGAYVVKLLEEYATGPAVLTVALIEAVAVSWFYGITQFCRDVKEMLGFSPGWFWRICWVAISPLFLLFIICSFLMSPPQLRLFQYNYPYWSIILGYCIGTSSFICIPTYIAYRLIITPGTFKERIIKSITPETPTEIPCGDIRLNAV

What is called melting point is the temperature, or range, at which the solid turns liquid. `COc1cc(N2CCN(CCc3coc4ccc(F)cc34)CC2)c2ncccc2c1` (as salt: HCl) [Compound 16, 8-{4-[2-(5-fluoro-1-benzofuran-3-yl)ethyl]-1-piperazinyl}-6-methoxy-quinoline] had a melting point of 80 °C. The term Ki denotes the equilibrium dissociation constant of an inhibitor or competing ligand from its target. In the case of `Clc1cc(N2CCN(CCc3coc4ccccc34)CC2)c2ncccc2c1` [Compound 2, 8-{4-[2-(1-benzofuran-3-yl)ethyl]-1-piperazinyl}-6-chloroquinoline], the affinity on Human 5-HT Transporter corresponds to a Ki of 1710 nM. Still for that read-out and setting: next, `Cc1cc(N2CCN(CCc3coc4ccccc34)CC2)c2ncccc2c1` [Compound 3, 8-{4-[2-(1-benzofuran-3-yl)ethyl]-1-piperazinyl}-6-methylquinoline]: 75.6 nM.

The molecule `COc1cc(N2CCN(CCc3coc4ccccc34)CC2)c2ncccc2c1` [Compound 4, 8-{4-[2-(1-benzofuran-3-yl)ethyl]-1-piperazinyl}-6-methoxyquinoline] gave a Ki at Human 5-HT Transporter of 612 nM.

`Clc1ccc2c(CCN3CCN(c4cccc5cccnc45)CC3)coc2c1` [Compound 5, 8-{4-[2-(6-chloro-1-benzofuran-3-yl)ethyl]-1-piperazinyl}-quinoline]: the Ki at Human 5-HT Transporter turned out to be 1.6 nM.

Turning to `Fc1cc(N2CCN(CCc3coc4cc(Cl)ccc34)CC2)c2ncccc2c1` [Compound 6, 8-{4-[2-(6-chloro-1-benzofuran-3-yl)ethyl]-1-piperazinyl}-6-fluoro-quinoline], the inhibition constant (Ki) at Human 5-HT Transporter was found to be 1080 nM. On the same count and under the same terms, in the case of `Cc1cc(N2CCN(CCc3coc4cc(Cl)ccc34)CC2)c2ncccc2c1` [Compound 8, 8-{4-[2-(6-chloro-1-benzofuran-3-yl)ethyl]-1-piperazinyl}-6-methyl-quinoline] it was 1780 nM; in that of `COc1ccc2c(CCN3CCN(c4cccc5cccnc45)CC3)coc2c1` [Compound 9, 8-{4-[2-(6-methoxy-1-benzofuran-3-yl)ethyl]-1-piperazinyl}-quinoline], 71.3 nM; in that of `COc1ccc2c(CCN3CCN(c4cc(C)cc5cccnc45)CC3)coc2c1` [Compound 10, 8-{4-[2-(6-methoxy-1-benzofuran-3-yl)ethyl]-1-piperazinyl}-6-methyl-quinoline], 206 nM. With `COc1ccc2c(CCN3CCN(c4cc(Cl)cc5cccnc45)CC3)coc2c1` [Compound 11, 8-{4-[2-(6-methoxy-1-benzofuran-3-yl)ethyl]-1-piperazinyl}-6-chloro-quinoline], affinity on Human 5-HT Transporter was put at a Ki of 540 nM. The molecule `Clc1ccc2occ(CCN3CCN(c4cccc5cccnc45)CC3)c2c1` [Compound 12, 8-{4-[2-(5-chloro-1-benzofuran-3-yl)ethyl]-1-piperazinyl}-quinoline] returned an inhibition constant (Ki) on Human 5-HT Transporter of 42.2 nM. Against the preceding molecule, the Ki is about 13-fold lower. With `Clc1cc(N2CCN(CCc3coc4ccc(Cl)cc34)CC2)c2ncccc2c1` [Compound 13, 8-{4-[2-(5-chloro-1-benzofuran-3-yl)ethyl]-1-piperazinyl}-6-chloro-quinoline], on Human 5-HT Transporter, the Ki was 270 nM. Against the preceding molecule, the Ki is about 6.4-fold higher. With `Cc1cc(N2CCN(CCc3coc4ccc(Cl)cc34)CC2)c2ncccc2c1` [Compound 14, 8-{4-[2-(5-chloro-1-benzofuran-3-yl)ethyl]-1-piperazinyl}-6-methyl-quinoline], on Human 5-HT Transporter, the affinity corresponds to a Ki of 9.82 nM. `Fc1ccc2occ(CCN3CCN(c4cccc5cccnc45)CC3)c2c1` [Compound 15, 8-{4-[2-(5-fluoro-1-benzofuran-3-yl)ethyl]-1-piperazinyl}-quinoline] came in with an inhibition constant (Ki) at Human 5-HT Transporter of 67.2 nM. This Ki lies about 6.8-fold higher than the previous one. On the same count and under the same terms, next, `COc1cc(N2CCN(CCc3coc4ccc(F)cc34)CC2)c2ncccc2c1` [Compound 16, 8-{4-[2-(5-fluoro-1-benzofuran-3-yl)ethyl]-1-piperazinyl}-6-methoxy-quinoline]: 180 nM. Same read-out and setting: next, `Fc1cc(N2CCN(CCc3coc4ccc(F)cc34)CC2)c2ncccc2c1` [Compound 17, 8-{4-[2-(5-fluoro-1-benzofuran-3-yl)ethyl]-1-piperazinyl}-6-fluoro-quinoline]: 50.9 nM; `COc1cccc2c(CCN3CCN(c4cccc5cccnc45)CC3)coc12` [Compound 18, 8-{4-[2-(7-methoxy-1-benzofuran-3-yl)ethyl]-1-piperazinyl}-quinoline]: 9.46 nM; `COc1cccc2c(CCN3CCN(c4cc(Cl)cc5cccnc45)CC3)coc12` [Compound 20, 8-{4-[2-(7-methoxy-1-benzofuran-3-yl)ethyl]-1-piperazinyl}-6-chloro-quinoline]: 47.7 nM. Still for that read-out and setting: in the case of `COc1ccc2occ(CCN3CCN(c4cc(C)cc5cccnc45)CC3)c2c1` [Compound 23, 8-{4-[2-(5-methoxy-1-benzofuran-3-yl)ethyl]-1-piperazinyl}-6-methyl-quinoline] it was 182 nM. On to `COc1cc(N2CCN(CCc3coc4ccc(OC)cc34)CC2)c2ncccc2c1` [Compound 25, 8-{4-[2-(5-methoxy-1-benzofuran-3-yl)ethyl]-1-piperazinyl}-6-methoxy-quinoline], for which the affinity on Human 5-HT Transporter, expressed as Ki, was 210 nM. On Human 5-HT Transporter, `COc1ccc2occ(CCN3CCN(c4cc(F)cc5cccnc45)CC3)c2c1` [Compound 26, 8-{4-[2-(5-methoxy-1-benzofuran-3-yl)ethyl]-1-piperazinyl}-6-fluoro-quinoline] had a Ki of 51 nM. Still for that read-out and setting: in the case of `CC(CN1CCN(c2cccc3cccnc23)CC1)c1coc2ccccc12` (stereo not shown) [Compound 27, 8-{4-[2-(1-benzofuran-3-yl)propyl]-1-piperazinyl}quinoline] it was 51.9 nM; in that of `CC(CN1CCN(c2cc(Cl)cc3cccnc23)CC1)c1coc2ccccc12` (stereo not shown) [Compound 28, 8-{4-[2-(1-benzofuran-3-yl)propyl]-1-piperazinyl}-6-chloro-quinoline], 125 nM; in that of `CC(CN1CCN(c2cc(F)cc3cccnc23)CC1)c1coc2ccccc12` (stereo not shown) [Compound 29, 8-{4-[2-(1-benzofuran-3-yl)propyl]-1-piperazinyl}-6-fluoro-quinoline], 115 nM.

For the molecule `Cc1cc(N2CCN(CC(C)c3coc4ccccc34)CC2)c2ncccc2c1` (stereo not shown) [Compound 30, 8-{4-[2-(1-benzofuran-3-yl)propyl]-1-piperazinyl}-6-methyl-quinoline], the Ki at Human 5-HT Transporter turned out to be 347 nM. Still for that read-out and setting: next, `COc1cccc2c(C(C)CN3CCN(c4cccc5cccnc45)CC3)coc12` (stereo not shown) [Compound 31, 8-{4-[2-(7-methoxy-1-benzofuran-3-yl)propyl]-1-piperazinyl}quinoline]: 9.53 nM; `COc1cccc2c(C(C)CN3CCN(c4cc(C)cc5cccnc45)CC3)coc12` (stereo not shown) [Compound 32, 8-{4-[2-(7-methoxy-1-benzofuran-3-yl)propyl]-1-piperazinyl}-6-methyl-quinoline]: 58.2 nM. Same read-out and setting: next, `COc1cccc2c(C(C)CN3CCN(c4cc(Cl)cc5cccnc45)CC3)coc12` (stereo not shown) [Compound 33, 8-{4-[2-(7-methoxy-1-benzofuran-3-yl)propyl]-1-piperazinyl}-6-chloro-quinoline]: 183 nM; `COc1cccc2c(C(C)CN3CCN(c4cc(C)cc5cccnc45)CC3)coc12` (stereo not shown) [Compound 34, 8-{4-[2-(7-methoxy-1-benzofuran-3-yl)propyl]-1-piperazinyl}-6-methyl-quinoline]: 881 nM. Same read-out and setting: in the case of `COc1cc(N2CCN(C(C)Cc3coc4c(OC)cccc34)CC2)c2ncccc2c1` (stereo not shown) [Compound 36, 6-methoxy-8-{4-[2-(7-methoxy-1-benzofuran-3-yl)-1-methylethyl)piperazin-1-yl]quinoline] it was 31 nM; in that of `COc1ccc2occ(CC(C)N3CCN(c4cc(Cl)cc5cccnc45)CC3)c2c1` (stereo not shown) [Compound 39, 6-chloro-8-{4-[2-(5-methoxy-1-benzofuran-3-yl)-1-methylethyl)piperazin-1-yl]quinoline], 40.1 nM.

For the molecule `COc1ccc2occ(CC(C)N3CCN(c4cc(C)cc5cccnc45)CC3)c2c1` (stereo not shown) [Compound 40, 6-methyl-8-{4-[2-(5-methoxy-1-benzofuran-3-yl)-1-methylethyl)piperazin-1-yl]quinoline], the affinity at Human 5-HT Transporter corresponds to a Ki of 549 nM. This Ki is about 14-fold higher than that of the molecule before. Still for that read-out and setting: in the case of `COc1cc(N2CCN([C@H]3CC[C@@H](c4csc5ccc(F)cc54)CC3)CC2)c2ncccc2c1` [Compound 49, 6-methoxy-8-{4-[4-cis(5-fluoro-1-benzothien-3-yl)cyclohexyl]piperazin-1-yl}quinoline] it was 659 nM; in that of `COc1cc(N2CCN([C@H]3CC[C@H](c4csc5ccc(F)cc54)CC3)CC2)c2ncccc2c1` [Compound 50, 6-methoxy-8-{4-[4-trans(5-fluoro-1-benzothien-3-yl)cyclohexyl]piperazin-1-yl}quinoline], 65.3 nM.

With `Fc1cc(N2CCN([C@H]3CC[C@@H](c4coc5ccccc54)CC3)CC2)c2ncccc2c1` [Compound 55, 8-{4-[4-cis(1-benzofuran-3-yl)cyclohexyl]-1-piperazinyl}-6-fluoroquinoline], the affinity at Human 5-HT Transporter corresponds to a Ki of 472 nM.

For the molecule `COc1cccc2c1occ2[C@H]1CC[C@H](N2CCN(c3ccc(F)c4cccnc34)CC2)CC1` [Compound 58, 5-fluoro-8-{4-[4-trans(7-methoxy-1-benzofuran-3-yl)cyclohexyl]-1-piperazinyl}quinoline], the inhibition constant (Ki) on Human 5-HT Transporter was 272 nM. On the same count and under the same terms, next, `COc1cccc2c1occ2[C@H]1CC[C@@H](N2CCN(c3ccc(Cl)c4cccnc34)CC2)CC1` [Compound 63, 5-chloro-8-{4-[4-cis(7-methoxy-1-benzofuran-3-yl)cyclohexyl]piperazin-1-yl}quinoline]: 124 nM; `COc1cccc2c1occ2[C@H]1CC[C@H](N2CCN(c3ccc(Cl)c4cccnc34)CC2)CC1` [Compound 64, 5-chloro-8-{4-[4-trans(7-methoxy-1-benzofuran-3-yl)cyclohexyl]piperazin-1-yl}quinoline]: 176 nM; `COc1ccc2occ([C@H]3CC[C@@H](N4CCN(c5ccc(Cl)c6cccnc56)CC4)CC3)c2c1` [Compound 65, 5-chloro-8-{4-[4-cis(5-methoxy-1-benzofuran-3-yl)cyclohexyl]piperazin-1-yl}quinoline]: 53 nM. On the same count and under the same terms, in the case of `COc1ccc2occ([C@H]3CC[C@H](N4CCN(c5ccc(Cl)c6cccnc56)CC4)CC3)c2c1` [Compound 66, 5-chloro-8-{4-[4-trans(5-methoxy-1-benzofuran-3-yl)cyclohexyl]piperazin-1-yl}quinoline] it was 1200 nM.
